# Measurements as given in US20030186948A1, “O-linked N-acetylglucosamine pathway in the pathogenesis of neurodegeneration and diabetes” (priority 2000, published 2003).
# Where a SMILES comes first, the peptide text is derived from it. [ ]: non-standard residue; d: D form. The star is where a group is joined. Nle = CCCC[C@H](N)C(=O)O; Cbz = O=C(OCc1ccccc1)*
# Columns and labels:
# [1] = target: T1, proteasome chymotryptic activity in NRK nuclear extracts (Rattus norvegicus, UniProt P28075); assay: suc-LLVY-AMC proteasome peptidase assay in NRK nuclear extracts; assay type: biochemical; settings: cells treated before extract preparation; data not shown
# T1 construct: endogenous in cells; host or cells: NRK cells, nuclear extract
# T1 sequence (P28075 60-263): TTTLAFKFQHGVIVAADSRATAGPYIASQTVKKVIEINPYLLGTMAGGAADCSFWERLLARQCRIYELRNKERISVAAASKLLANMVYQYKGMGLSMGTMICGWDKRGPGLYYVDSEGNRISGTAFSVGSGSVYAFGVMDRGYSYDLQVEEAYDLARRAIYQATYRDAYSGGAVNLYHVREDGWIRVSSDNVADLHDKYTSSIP
# Method: The chymotryptic activity of the proteasome itself can be measured using short synthetic peptides. The peptide, N-succinyl-Leu-Leu-Val-Tyr-7-amido-4-methylcoumarin (suc-LLVY-AMC) (Sigma), is coupled to a fluorescent indicator, and the cleavage can be monitored and quantitated by a fluorometer. […] The reaction is carried out in a 96 well plate.
# If the chymotryptic cleavage has occurred, the fluorescence can b e excited with UV light at 365 nm and detected by a CCDdigital camera coupled to a computer. Because the LLVY peptide can be cleaved by any enzyme having chymotryptic activity, cleavage is not specifically proteasome-dependent. However, if cleavage is blocked by a wide spectrum proteasome inhibitors, then it is reasonable to deduce that the detected fluorescence is proteasome-dependent.
# Proteasome peptidase activity in activated NRK nuclear extracts was examined with this assay. The activity could be inhibited by preincubating the extract with known proteasome inhibitors indicating the fluorescent signal derives from authentic proteasome activity (FIG. 2). […] When the extract was exposed briefly to GST-OGT plus UDP-GlcNAc and then the O-GlcNAc transferase was removed, the chymotryptic activity was eliminated. GST had no effect on the proteasome activity. […] The chymotryptic activity of the proteasome was stimulated by this treatment.
# [2] = tested on: Sp1 proteasome degradation; assay: Sp1 depletion in cells under low glucose and cAMP accumulation; assay type: cell-based
# From the text: This study therefore correlated the stability of Sp1 against proteasome degradation with the level of Sp1 modification by O-GleNAc.
# The depletion of O-GlcNAc on Sp1 and other proteins appeared to have resulted both from the glucose starvation and from the cAMP.
# [3] = target: T2, Purified recombinant O-GlcNAc transferase (Homo sapiens, UniProt O15294); assay: Inhibition of purified recombinant O-GlcNAc transferase; assay type: biochemical
# T2 sequence (O15294 1-1046): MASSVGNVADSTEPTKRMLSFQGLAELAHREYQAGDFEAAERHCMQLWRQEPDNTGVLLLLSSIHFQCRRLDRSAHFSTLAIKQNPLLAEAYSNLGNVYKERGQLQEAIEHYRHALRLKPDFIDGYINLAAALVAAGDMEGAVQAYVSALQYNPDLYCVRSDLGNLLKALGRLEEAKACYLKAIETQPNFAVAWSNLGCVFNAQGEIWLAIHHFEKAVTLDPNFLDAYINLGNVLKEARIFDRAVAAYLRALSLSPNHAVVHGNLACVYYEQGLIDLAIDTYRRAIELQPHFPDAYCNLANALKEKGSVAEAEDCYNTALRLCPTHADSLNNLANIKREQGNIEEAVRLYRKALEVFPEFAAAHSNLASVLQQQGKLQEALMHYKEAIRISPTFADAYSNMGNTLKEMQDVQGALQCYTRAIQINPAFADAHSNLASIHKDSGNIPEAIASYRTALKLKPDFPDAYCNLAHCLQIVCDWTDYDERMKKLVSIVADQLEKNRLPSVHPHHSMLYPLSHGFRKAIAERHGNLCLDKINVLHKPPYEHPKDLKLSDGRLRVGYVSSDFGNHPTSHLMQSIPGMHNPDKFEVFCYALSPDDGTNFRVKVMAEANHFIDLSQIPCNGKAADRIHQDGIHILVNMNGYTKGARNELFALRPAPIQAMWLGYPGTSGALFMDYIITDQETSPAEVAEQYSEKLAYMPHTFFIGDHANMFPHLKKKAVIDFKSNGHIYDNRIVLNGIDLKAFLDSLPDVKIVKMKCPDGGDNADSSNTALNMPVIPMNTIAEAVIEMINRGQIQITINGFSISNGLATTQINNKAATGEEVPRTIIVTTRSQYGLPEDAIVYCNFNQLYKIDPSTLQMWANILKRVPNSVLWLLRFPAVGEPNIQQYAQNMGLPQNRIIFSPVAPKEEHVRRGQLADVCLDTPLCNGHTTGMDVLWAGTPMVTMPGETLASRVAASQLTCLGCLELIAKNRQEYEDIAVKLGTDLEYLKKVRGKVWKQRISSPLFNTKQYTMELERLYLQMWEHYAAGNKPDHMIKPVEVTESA
# Method: (§1) Another chemical means of inhibiting O-GlcNAc transferase has been discovered. Another long known diabetogenic drug, alloxan (ALX) (FIG. 8 above), is a uracil analog. Injections of this drug into laboratory rats also causes a relatively specific death of the pancreatic β-cells. […] Purified recombinant O-GlcNAc transferase is inhibited half-maximally by 0.1 mM alloxan, compatible with the dose of this drug that causes diabetes. These studies indicate that an analog of UDP-GlcNAc that mimics the uracil moiety like alloxan, might be an index compound for the discovery of other UDP-GlcNAc like molecules that inhibit the O-GlcNAc transferase.
# [4] = tested on: O-GlcNAc modification of p135 in isolated β-cells; assay: O-GlcNAc modification of p135 in isolated β-cells treated with alloxan; assay type: cell-based
# Method: as §1
# [5] = tested on: p135 O-glycosylation in pancreatic islets; assay: Pancreatic islet p135 O-glycosylation (RL2 immunoprecipitation and Western blot); assay type: cell-based, rat; settings: for inhibition of p135 O-glycosylation: comparison with NOC-15, FIG. 12
# Method: Rat pancreatic islets were isolated, counted into tubes and pre-incubated with 3 mM glucose. Following pre-incubation, islets were stimulated with 3 mM glucose, 5 mM STZ, 5 mM NOC-15, or 5 mM DPTA. NOC-15 ((Z)-1-[N-(3-Ammoniopropyl)-N-(n-propyl)amino]diazen-ium-1,2-diolate, also known as PAPA NONOate) is a structural analog of […] (FIG. 9). At the end of the experiment, O-glycosylated proteins were immunoprecipitated with RL2 antibody, which binds to O-linked N-acetylglucosamine. Immunoprecipitated proteins were run out on a 6.5% SDS-PAGE gel and the proteins were then transferred to a nitrocellulose blot. The blot was then probed with RL2 antibody, which was detected by the ECL method. The blot was exposed to X-ray film and the film was developed and photographed. […] The structure and action of NOC-15 can thus be used as a basis to synthesize drugs that can be used to prevent and/or treat diabetes.
# pancreatic islets = assay: TUNEL assay and p53 staining of pancreatic slices from STZ-treated rats; assay type: in vivo, rat
# Method: The effect of streptozotocin on p53 accumulation in the islets was determined using immunohistochemistical analysis of pancreatic slices from rats treated for various times with STZ. […] This assay has been described thoroughly (Liu et al., 2000). The TUNEL positivity peaks at about 22-24 hours after the administration of STZ. When the tissue was stained with p53 antibodies, it was noted that p53 accumulation preceded the apoptosis. […] This corresponds with the observation the O-GlcNAc transferase is much more highly expressed in the endocrine pancreas. STZ also is toxic to the somatotropes in the pituitary where O-GlcNAc transferase is highly expressed. Thus, it is predicted there where O-GlcNAc transferase is abundant, STZ-sensitivity should be seen.
# [6] = tested on: TGFα promoter β-gal reporter in pancreatic β-cells; assay: TGFα-βgal reporter activity in islets after streptozotocin injection; assay type: in vivo, mouse; settings: TGFα-βgal reporter mice, dose that causes β-cell apoptosis
# Method: The TGFα promoter was placed in front of the β-galactosidase reporter gene and developed two lines of transgenic mice. The line with the best reporter activity was used in all subsequent experiments. Tissue expression of the reporter was detected as follows: tissues were quickly excised, cut into pieces, and fixed in 4% paraformaldehyde (made in PBS, pH 7.5) for 30 min at 4° C. Tissue sections were rinsed three times 10 min each in ice-cold PBS, immersed in freshly prepared staining solution [10 ml solution of PBS (pH 7.4) containing 2 mM MgCl2, 0.01% sodium deoxycholate, 0.02% NP40, 0.1% X-gal dissolved in dimethylformamide, 82.5 mg potassium ferricyanide, and 94.5 mg potassium ferrocyanide], and incubated overnight at 37° C. The reaction was stopped by rinsing the organs in PBS. Sampleswere stored in 70% ethanol at 4° C. […] For example, β-gal activity was detected in the pituitary and in some neurons, sites where native TGFα had been detected before. […] Of particular interest in this regard was the absence of staining in the exocrine and endocrine pancreas.
# Because p53 accumulates in the islet in response to STZ, and TGFα transcription is driven by p53, it is reasonable to examine the TGFα reporter mice for TGFα promoter activation in the islets. Mice were injected with streptozotocin at the dose that cause β-cell apoptosis. […]
# hippocampal neurons = assay: Intracerebroventricular streptozotocin in TGFα-βgal mice: p53 staining and reporter function in brain; assay type: in vivo, mouse
# Method: A number of research groups have developed techniques of injecting streptozotocin into the cerebral ventricles (Lannert & Hoyer, 1998; Weinstock et al., 2001; Sharma & Gupta, 2002). To determine if treatment with streptozotocin causes p53 accumulation in the brain, freshly prepared streptozotocin can be injected stereotactically into the cerebral ventricles, and the brain tissues can then be stained for the presence of p53. When the control TGFα-βgal mice were injected with vehicle alone, no p53 was detected 16 hours post injection. […] STZ was also injected into TGFα-βgal mice with a homozygous knock-out of p53.
# The brains slices from similar mice receiving icv injections 36 hours prior to sacrifice were examined for TGFα-βgal reporter function.
# [7] = tested on: hippocampal neurons (CA1 region); assay: RL2 immunostaining of brain O-GlcNAc after cerebroventricular streptozotocin; assay type: in vivo, rat; settings: 6 hours after injection
# Method: To determine if streptozotocin causes hippocampal neuron O-GlcNAc accumulation, the drug was delivered stereotactically to the cerebroventricles of a rat brain. The brain tissues were then stained for O-GlcNAc content using the O-GlcNAc-specific monoclonal antibody, RL2. Staining of rat tissue by this mouse antibody is easier because detection is not hampered by endogenous mouse IgG. Staining is blocked by preincubation of RL2 with GlcNAc, but not GalNAc or glucosamine (needs acetylation) or other sugars. The bound RL2 can be detected by fluorescent-tagged antimouse IgG antibody. […] At 6 hours post-injection, the animals were sacrificed and brain O-GlcNAc content was detected with RL2 immunostaining as previously described (Liu et al., 2000).
# [8] = target: T3, brain proteasome LLVY chymotryptic activity (Rattus norvegicus, UniProt P28075); assay: suc-LLVY-AMC cleavage in brain extract of streptozotocin-injected animals; assay type: in vivo
# T3 construct: Brain extract was prepared from animals injected with or without streptozotocin; from tissue; host or cells: brain extract
# T3 sequence (P28075 60-263): T1 sequence (P28075 60-263)
# Method: To determine whether STZ-injected animals display a n alteration in proteasomal function, the cleavage of the peptide LLVY was examined following streptozotocin treatment. Brain extract was prepared from animals injected with or without streptozotocin, and suc-LLVY-AMC was added to the extract.
# [9] = tested on: proteasome processing of Sp1 in nuclear extract; assay: Sp1 degradation by proteasome in nuclear extract; assay type: biochemical; settings: activated nuclear extract
smiles,measurement,setting,value
CC(=O)N[C@@H](CSC(=O)[C@]1([C@@H](O)C(C)C)NC(=O)[C@H](C)[C@@H]1O)C(=O)O [lactacystin],proteasome chymotryptic activity of extract from treated cells,[1],does not display this activity
same,loss of Sp1 under low glucose and cAMP accumulation,[2],blocked
O=C1NC(=O)C(=O)C(=O)N1 [alloxan],IC50,[3],100 µM
same,increase in the O-GlcNAc modification of p135 in response to glucose or glucosamine,[4],fail to display an increase
CN(N=O)C(=O)N[C@H]1C(O)O[C@H](CO)[C@@H](O)[C@@H]1O (mixture of isomers) [streptozotocin],effect on p135 O-glycosylation,"[5]; rat islets, 5 mM",stimulated
same,p53 accumulation in islets,pancreatic islets; at 16 hours,well established
same,time of peak TUNEL positivity after administration,pancreatic islets; rat islets,22 to 24 h
same,apoptosis in islets by TUNEL assay,pancreatic islets; rats treated with STZ,causes apoptosis
same,β-gal reporter activity in pancreas,[6],appeared in the β-cells but not exocrine pancreas
same,p53 by immunohistochemistry in neurons of the hippocampus,hippocampal neurons; 16 hours post icv injection,readily detectable
same,TGFα-βgal reporter function in hippocampal neurons,"hippocampal neurons; icv injection 36 hours prior to sacrifice, wildtype TGFα-βgal mice",show reporter function
same,O-GlcNAc signal in hippocampal neurons (RL2),[7],marked increase
same,LLVY chymotryptic activity in the brains of treated animals,"[8]; brain extract, preliminary results",marked inhibition
NCCCN(CCCN)/[N+]([O-])=N/O [DPTA],inhibition of p135 O-glycosylation,[5],do not inhibit
N[C@H]1C(O)O[C@H](CO)[C@@H](O)[C@@H]1O (stereo partly shown) [glucosamine],proteasome chymotryptic activity of extract from treated cells,[1],does not display this activity
same,Sp1 degradation after glucose starvation and forskolin,[2]; cells provided glucosamine,degradation decreased
CC(C)[C@H](O)[C@@]12NC(=O)[C@H](C)[C@@H]1OC2=O [β-lactone],suc-LLVY-AMC fluorescence in brain extract,[8]; inhibitor added to extract,inhibited
"CCCN(CCCN)/[N+]([O-])=N/O [NOC-15, (Z)-1-[N-(3-Ammoniopropyl)-N-(n-propyl)amino]diazen-ium-1,2-diolate]",inhibition of STZ-induced p135 O-glycosylation,"[5]; rat islets, 5 mM streptozotocin and 5 mM NOC-15",almost completely inhibiting
NCCCNCCCCN(CCCN)/[N+]([O-])=N/O [Spermine NONOate],inhibition of p135 O-glycosylation,[5],do not inhibit
CCCC[C@@H](C=O)NC(=O)[C@H](CC(C)C)NC(=O)[C@H](CC(C)C)NC(C)=O [LLnL] (Ac-Leu-Leu-[Nle]-aldehyde),loss of Sp1 under low glucose and cAMP accumulation,[2],blocked
CC(C)C[C@@H](C=O)NC(=O)[C@H](CC(C)C)NC(=O)[C@H](CC(C)C)NC(=O)OCc1ccccc1 [MG132] (Cbz-Leu-Leu-Leu-aldehyde),loss of Sp1 under low glucose and cAMP accumulation,[2],blocked
CC(=O)N[C@H]1[C@@H](OP(=O)(O)OP(=O)(O)OC[C@H]2O[C@@H](n3ccc(=O)[nH]c3=O)[C@H](O)[C@@H]2O)O[C@H](CO)[C@H](O)[C@@H]1O [UDP-GalNAc],effect on the inhibitory effect of catalytically active O-GlcNAc transferase on Sp1 processing,[9],partially blocked
